According to patent US10030047B2 (Hoffmann-La Roche Inc., priority 2015, dated 2018):
Converted amounts (≈) assume the structure as drawn.

These compounds were tested on A. baumannii strain ATCC19606 (assay: Minimum inhibitory concentration (MIC) determination, microbroth dilution (CLSI)). Settings: Acinetobacter baumannii, ATCC19606, 20 h, read-out: ATCC19606 MIC.
Format: cell-based
Procedure: The in vitro antimicrobial activity of the compounds was determined through microbroth minimum inhibitory concentration (MIC) methodology performed according to the Clinical and Laboratory Standard Institute guidelines (CLSI—M07-A9 Jan. 2012. Methods for Dilution Antimicrobial Susceptibility Tests for Bacteria That Grow Aerobically; Approved Standard—Ninth Edition, Clinical and Laboratory Standards Institute, Wayne/PA, US and the CLSI—M100-S24 Jan. 2014. Performance Standards for Antimicrobial Susceptibility Testing; Approved Standard—Fourth Informational Supplement, Clinical and Laboratory Standards Institute, Wayne/PA, US).
The compound stock solution was freshly prepared at 10× the required top concentration for the MIC determination, i.e. at 1280 mg/L, by reconstitution of the dry compound in 50:50 water:DMSO.
Polystyrene non-treated 96 wells microtiter plates were used for preparing panel containing compound serial twofold diluted at two times the final testing concentration (e.g. range from 64 to 0.06 μg/ml) in cation adjusted Mueller Hinton broth medium (CAMHB).
Inoculum was prepared by the “direct colony suspension method”. Colonies of A. baumannii ATCC19606 or clinical isolates were suspended in saline solution and adjusted to 0.5 McFarland, diluted 100 times in CAMHB broth and 50 μl added to each well (final concentration of cells ˜5×10^(5) CFU/ml and Final volume/well of 100 μl). Microtiter plates were sealed and incubated at 35±2° C.
MICs values were read after 20 hours of incubation and recorded as the lowest concentration of the antimicrobial that inhibits more or equal to 80% of growth of the organism as detected by the unaided eye and using a microtiter plate optical density reader (OD 600 nm).
Tables 2, 3, 4 and 5 provide the minimum inhibitory concentration (MIC) in microgram per milliliter of the compounds of present invention obtained against the A. baumannii strain ATCC19606 (Tables 2, 3, 4 and 5).

Row | Structure (SMILES) | MIC [µg/mL]
1 | CN1C(=O)[C@H](CCCN)NC(=O)[C@H](CCCN)NCc2ccccc2Sc2ccccc2CNC(=O)[C@@H]1Cc1c[nH]c2ccccc12 [Example 2, (12S,15S,18S)— 15,18-Bis-(3-amino-propyl)-12-(1H-indol-3-ylmethyl)-13-methyl-2-thia-10,13,16,19-tetraaza-tricyclo[19.4.0.0*3,8*]pentacosa-1(21),3,5,7,22,24-hexaene-11,14,17-trione] | 4 (≈ 6.1 µM)

Same assay, conditions: Acinetobacter baumannii; A. baumannii ATCC19606; CAMHB; read after 20 hours; >=80% growth inhibition; read-out: ATCC19606 MIC

Row | Structure (SMILES) | MIC [µg/mL]
2 | CN1C(=O)[C@H](CCCCN)NC(=O)[C@H](CCCN)NCc2ccccc2Sc2ccc(Cl)cc2CNC(=O)[C@@H]1Cc1c[nH]c2ccccc12 [Example 4, (12S,15S,18S)-15-(4-Amino-butyl)-18-(3-amino-propyl)-6-chloro-12-(1H-indol-3-ylmethyl)-13-methyl-2-thia-10,13,16,19-tetraaza-tricyclo[19.4.0.0*3,8*]pentacosa-1(21),3,5,7,22,24-hexaene-11,14,17-trione] | 1 (≈ 1.42 µM)
3 | COc1ccc2c(c1)CNC(=O)[C@H](Cc1c[nH]c3ccccc13)N(C)C(=O)[C@H](CCCCN)NC(=O)[C@H](CCCN)NCc1ccccc1S2 [Example 7, (12S,15S,18S)-15-(4-Amino-butyl)-18-(3-amino-propyl)-12-(1H-indol-3-ylmethyl)-6-methoxy-13-methyl-2-thia-10,13,16,19-tetraaza-tricyclo[19.4.0.0*3,8*]pentacosa-1(21),3,5,7,22,24-hexaene-11,14,17-trione] | 0.5 (≈ 0.714 µM)
4 | Cc1cccc2c1Sc1ccccc1CN[C@@H](CCCN)C(=O)N[C@@H](CCCCN)C(=O)N(C)[C@@H](Cc1c[nH]c3ccccc13)C(=O)NC2 [Example 8, (12S,15S,18S)-15-(4-Amino-butyl)-18-(3-amino-propyl)-12-(1H-indol-3-ylmethyl)-4,13-dimethyl-2-thia-10,13,16,19-tetraaza-tricyclo[19.4.0.0*3,8*]pentacosa-1(21),3,5,7,22,24-hexaene-11,14,17-trione] | 0.5 (≈ 0.731 µM)

Further lines, results first:

Row | MIC [µg/mL] | Structure (SMILES)
5 | 4 (≈ 5.97 µM) | CN1C(=O)[C@H](CCCCN)NC(=O)[C@H](CCCN)NCc2ccccc2Sc2ccccc2CNC(=O)[C@@H]1Cc1c[nH]c2ccccc12 [Example 1, (12S,15S,18S)-15-(4-Amino-butyl)-18-(3-amino-propyl)-12-(1H-indol-3-ylmethyl)-13-methyl-2-thia-10,13,16,19-tetraaza-tricyclo[19.4.0.0*3,8*]pentacosa-1(21),3,5,7,22,24-hexaene-11,14,17-trione]
6 | 16 (≈ 23 µM) | CN1C(=O)[C@H](CCCCN)NC(=O)[C@H](C2CCNCC2)NCc2ccccc2Sc2ccccc2CNC(=O)[C@@H]1Cc1c[nH]c2ccccc12 [Example 3, (12S,15S,18S)-15-(4-Amino-butyl)-12-(1H-indol-3-ylmethyl)-13-methyl-18-piperidin-4-yl-2-thia-10,13,16,19-tetraaza-tricyclo[19.4.0.0*3,8*]pentacosa-1(21),3,5,7,22,24-hexaene-11,14,17-trione]
7 | 32 (≈ 46.8 µM) | CN1C(=O)[C@H](CCCCN)NC(=O)[C@H](CNC(=N)N)NCc2ccccc2Sc2ccccc2CNC(=O)[C@@H]1Cc1c[nH]c2ccccc12 [Example 5, N-[(11S,14S,17S)-14-(4-Amino-butyl)-17-(1H-indol-3-ylmethyl)-16-methyl-12,15,18-trioxo-2-thia-10,13,16,19-tetraaza-tricyclo[19.4.0.0*3,8*]pentacosa-1(25),3(8),4,6,21,23-hexaen-11-ylmethyl]-guanidine]
8 | 2 (≈ 2.84 µM) | CN1C(=O)[C@H](CCCCN)NC(=O)[C@H](CCCN)NCc2ccccc2Sc2cc(Cl)ccc2CNC(=O)[C@@H]1Cc1c[nH]c2ccccc12 [Example 6, (12S,15S,18S)-15-(4-Amino-butyl)-18-(3-amino-propyl)-5-chloro-12-(1H-indol-3-ylmethyl)-13-methyl-2-thia-10,13,16,19-tetraaza-tricyclo[19.4.0.0*3,8*]pentacosa-1(21),3,5,7,22,24-hexaene-11,14,17-trione]
